Where a name gives a salt, the structure may show the parent alone.
How the values were obtained:
[1] = biological target: T1, human cloned dopamine D4.2 receptors (Homo sapiens, UniProt P21917, DEL265-296); experiment: Inhibition of the binding of [3H]YM-09151-2 to D4.2 receptors; conditions: [3H]YM-09151-2 0.06 nM; for % inhib. at the D4-receptor: % inhibition of binding at 50 nM; for IC50: membranes of CHO-cells, read-out: IC50 (nM) at the D4-receptor
T1 construct: expressed in transfected cells; host or cells: CHO cells
T1 sequence (P21917 with tags, fused parts or gaps DEL265-296): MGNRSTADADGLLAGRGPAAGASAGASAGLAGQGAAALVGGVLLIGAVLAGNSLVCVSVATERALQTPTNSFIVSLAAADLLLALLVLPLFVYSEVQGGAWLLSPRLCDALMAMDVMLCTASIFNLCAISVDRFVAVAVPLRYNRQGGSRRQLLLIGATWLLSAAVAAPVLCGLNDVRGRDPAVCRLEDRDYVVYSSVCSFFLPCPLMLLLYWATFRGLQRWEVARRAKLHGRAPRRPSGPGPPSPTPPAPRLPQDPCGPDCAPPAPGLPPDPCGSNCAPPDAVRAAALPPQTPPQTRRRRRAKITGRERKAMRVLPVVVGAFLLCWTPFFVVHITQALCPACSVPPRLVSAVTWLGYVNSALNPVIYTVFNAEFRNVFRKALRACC
Source text: The method is modified from NEN Life Science Products, Inc., technical data certificate PC2533-10/96.

5-HT2A receptors = biological target: T2, 5-HT2A receptors (Rattus norvegicus, UniProt P14842); experiment: Inhibition of the binding of [3H]Ketanserin to 5-HT2A receptors; conditions: [3H]Ketanserin 0.50 nM, membranes from rat brain (cortex); read-out: IC50 (nM) at the 5HT2A-receptor
T2 construct: membranes from rat brain (cortex) in vitro; from tissue; host or cells: rat brain cortex membranes
T2 sequence (P14842 whole entry): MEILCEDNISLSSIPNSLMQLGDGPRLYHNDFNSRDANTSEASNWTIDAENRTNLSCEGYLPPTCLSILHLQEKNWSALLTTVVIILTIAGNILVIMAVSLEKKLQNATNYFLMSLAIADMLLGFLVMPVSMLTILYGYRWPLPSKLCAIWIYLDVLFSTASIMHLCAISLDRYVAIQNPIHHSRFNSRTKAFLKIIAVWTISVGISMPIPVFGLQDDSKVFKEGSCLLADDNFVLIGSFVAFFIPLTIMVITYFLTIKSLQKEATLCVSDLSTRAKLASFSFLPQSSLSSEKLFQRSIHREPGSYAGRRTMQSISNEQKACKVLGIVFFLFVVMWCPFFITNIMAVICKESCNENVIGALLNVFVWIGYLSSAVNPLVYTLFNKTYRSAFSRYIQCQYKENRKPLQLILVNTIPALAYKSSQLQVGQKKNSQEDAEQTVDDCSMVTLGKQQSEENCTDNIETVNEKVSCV
Protocol: Inhibition of the Binding of [^3H]Ketanserin to 5-HT2A Receptors
The compounds were tested with respect to their affinity for 5-HT2A receptors by determining their ability to inhibit binding of [^3H]Ketanserin (0.50 nM) to membranes from rat brain (cortex) in vitro. Method described in Sanchez et al. Drug Dev. Res. 1991, 22, 239-250.

D4 receptor = biological target: T3, D4 receptor (Homo sapiens, UniProt P21917); conditions: various in vitro efficacy assays (Gazi et al.); cited from earlier work
T3 sequence (P21917 1-419): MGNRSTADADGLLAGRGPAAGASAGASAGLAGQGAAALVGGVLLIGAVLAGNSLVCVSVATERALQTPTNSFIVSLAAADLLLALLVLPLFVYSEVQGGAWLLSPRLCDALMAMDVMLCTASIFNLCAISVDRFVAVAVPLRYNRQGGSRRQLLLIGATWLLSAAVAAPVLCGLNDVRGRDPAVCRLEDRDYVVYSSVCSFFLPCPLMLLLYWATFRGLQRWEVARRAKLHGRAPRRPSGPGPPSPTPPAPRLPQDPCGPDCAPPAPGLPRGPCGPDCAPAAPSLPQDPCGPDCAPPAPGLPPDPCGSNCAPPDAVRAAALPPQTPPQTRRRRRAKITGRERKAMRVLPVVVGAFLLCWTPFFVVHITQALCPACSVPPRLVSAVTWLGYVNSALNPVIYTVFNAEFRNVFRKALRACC

| SMILES | melting point [°C] | % inhib. at the D4-receptor [1] [%] | IC50 [1] [nM] | IC50 (5-HT2A receptors) [nM] | Functional activity at D4 receptor (D4 receptor) |
| --- | --- | --- | --- | --- | --- |
| CC(=O)N1CC(CCN2CCN(c3ccc(Cl)c(Cl)c3)CC2)c2ccccc21 (single isomer, unassigned; (+)) (as salt: hydrochloride) [Compound 1d, (+)-1-[2-(1-Acetyl-2,3-dihydro-1H-indol-3-yl)ethyl]-4-(3,4-dichlorophenyl)piperazine, hydrochloride] | 184 to 186 |  |  |  |  |
| CC(=O)N1CC(CCN2CCN(c3ccc(C)c(C)c3)CC2)c2ccccc21.Cl (single isomer, unassigned; (+)) [Compound 1a, (+)-1-[2-(1-Acetyl-2,3-dihydro-1H-indol-3-yl)ethyl]-4-(3,4-dimethylphenyl)piperazine, hydrochloride] |  | 88 | < 50 | 5 |  |
| CC(=O)N1CC(CCN2CCN(c3ccc(C)cc3)CC2)c2ccccc21.Cl (single isomer, unassigned; (+)) [Compound 1b, (+)-1-[2-(1-Acetyl-2,3-dihydro-1H-indol-3-yl)ethyl]-4-(4-methylphenyl)piperazine, hydrochloride] | 217 to 220 | 88 | < 50 | 15 |  |
| CC(=O)N1CC(CCN2CCC(c3ccc(C)cc3)CC2)c2ccccc21 (single isomer, unassigned; (+)) [Compound 1c, (+)-1-[2-(1-Acetyl-2,3-dihydro-1H-indol-3-yl)ethyl]-4-(4-methylphenyl)piperidine] | 112 to 114 | 76 | < 50 | 17 |  |
| CC(=O)N1CC(CCN2CCN(c3ccc(Cl)c(Cl)c3)CC2)c2ccccc21 (single isomer, unassigned; (+)) [Compound 1d, (+)-1-[2-(1-Acetyl-2,3-dihydro-1H-indol-3-yl)ethyl]-4-(3,4-dichlorophenyl)piperazine, hydrochloride] |  | 86 | < 50 | 21 |  |
| CC(=O)N1CC(CCN2CCN(c3ccc(Br)cc3)CC2)c2ccccc21 (stereo not drawn) [Compound 1e, (+)-]-[2-(1-Acetyl-2,3-dihydro-1H-indol-3-yl)ethyl]-4-(4-bromophenyl)piperazine, hydrochloride] |  | 95 | < 50 | 17 |  |
| CC(=O)N1CC(CCN2CC=C(c3ccc(Cl)c(Cl)c3)CC2)c2ccccc21 (centres unmarked) [Compound 1f, ]-[2-(1-Acetyl-2,3-dihydro-1H-indol-3-yl)ethyl]-4-(3,4-dichlorophenyl)-3,6-dihydro-2H-pyridine, hydrochloride] |  |  | 13 | 27 |  |
| CC(=O)N1CC(CCN2CCC(c3ccc(Cl)c(Cl)c3)CC2)c2ccccc21 (centres unmarked) [Compound 1g, 1-[2-(1-Acetyl-2.3-dihydro-1H-indol-3-yl)ethyl]-4-(3.4-dichlorophenyl)piperidine, hydrochloride] |  |  | 5.4 | 21 |  |
| CC(C)Oc1cccnc1N(C)C1CCN(Cc2ccccc2)CC1 [Compound U-101958] |  |  |  |  | partial D4 receptor agonists |
